According to patent US8722849B2, “Polypeptides” (Novo Nordisk A/S, priority 2011, dated 2014):
Values after ≈ are worked out from the molar mass of the structure shown. Read-outs that look alike come from different tables or passages of the source. Starred links: 1 amine or outer side, 2 acyl side, 3 side chain; linkers in the order of their positions; H or OH if unused. Positions of bridges follow the written chain, without caps; N, C: chain ends. Residues, ends and D or L forms follow the SMILES beside them. *: point of attachment. C20 diacid = O=C(O)CCCCCCCCCCCCCCCCCCC(=O)*; γGlu = O=C(O)[C@H](CCC(=O)[*:2])N[*:1]

Tests used:
[1] = biological target: T1, human amylin receptor (amylin 3(a) receptor: human calcitonin receptor + RAMP-3) (Homo sapiens, UniProt O60896+P30988); assay: Assay (II)a functional CRE-luciferase assay, human amylin receptor; type: cell-based; settings: Table 2; BHK amylin 3(a)-receptor/CRE-luc cells
T1 construct: expressed in transfected cells; host or cells: BHK570
T1 sequence (P30988 25-474): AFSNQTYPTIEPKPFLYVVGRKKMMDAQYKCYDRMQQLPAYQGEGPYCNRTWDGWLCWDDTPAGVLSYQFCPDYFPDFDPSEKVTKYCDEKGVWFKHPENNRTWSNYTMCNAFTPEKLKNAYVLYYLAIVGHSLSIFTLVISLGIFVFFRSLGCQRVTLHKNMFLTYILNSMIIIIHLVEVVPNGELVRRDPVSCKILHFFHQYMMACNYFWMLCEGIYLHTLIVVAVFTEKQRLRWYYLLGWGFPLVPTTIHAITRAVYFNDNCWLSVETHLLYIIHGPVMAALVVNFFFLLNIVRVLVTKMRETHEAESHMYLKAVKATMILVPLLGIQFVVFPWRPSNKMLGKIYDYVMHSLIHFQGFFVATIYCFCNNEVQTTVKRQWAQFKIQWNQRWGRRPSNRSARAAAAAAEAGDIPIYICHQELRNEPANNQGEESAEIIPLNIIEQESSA
T1 sequence (O60896 24-148 partner): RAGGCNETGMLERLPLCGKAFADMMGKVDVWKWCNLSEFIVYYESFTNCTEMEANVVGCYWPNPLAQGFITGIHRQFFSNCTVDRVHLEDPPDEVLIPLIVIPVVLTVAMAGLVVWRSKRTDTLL

[2] = biological target: T2, human calcitonin receptor (Homo sapiens, UniProt P30988); assay: Assay (II)a functional CRE-luciferase assay, human calcitonin receptor; type: cell-based; settings: Table 7; human calcitonin (CTa) receptor
T2 construct: expressed in transfected cells; host or cells: BHK570
T2 sequence (P30988 25-474): T1 sequence (P30988 25-474)

[3] = Assay (III) ThT fibrillation assay for physical stability; type: physicochemical
How it was run: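 Freshly prepared formulations, pH-adjusted, with 1 μM ThT; four or eight replicates incubated at 37 °C under 960 rpm orbital shaking. Fluorescence (ex 444/em 485 nm) read every 20 min; […]. Peptide concentration measured by RP-HPLC before and after the run.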

[4] = Assay (IV) determination of solubility; type: physicochemical
How it was run: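 Polypeptide in water (~500 nmol/ml stock) was mixed 1:1 with 100 mM buffers from pH 3.0 to 8.0 (glycylglycine pH 3.0–5.0; bistrispropane pH 6.0–8.0). After 18 hours at room temperature, samples were centrifuged and the polypeptide remaining in solution was quantified by HPLC.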

[5] = bistrispropane buffer, pH 6, pH 6.0, read-out: Solubility pH 6.0
[6] = bistrispropane buffer, pH 6.5, pH 6.5, read-out: Solubility pH 6.5
[7] = bistrispropane buffer, pH 7, pH 7.0, 18 hours at room temperature, Table 3, read-out: Solubility pH 7.0
[8] = bistrispropane buffer, pH 7, pH 7.0, Table 8, read-out: Solubility pH 7.0
[9] = bistrispropane buffer, pH 7, pH 7.0, Table 9, read-out: Solubility pH 7.0
[10] = bistrispropane buffer, pH 7, pH 7.0, read-out: Solubility pH 7.0
[11] = bistrispropane buffer, pH 7.5, pH 7.5, Table 9, read-out: Solubility pH 7.5
[12] = bistrispropane buffer, pH 7.5, pH 7.5, read-out: Solubility pH 7.5
[13] = bistrispropane buffer, pH 8, pH 8.0, read-out: Solubility pH 8.0
[14] = glycylglycine buffer, pH 3, pH 3.0, read-out: Solubility pH 3.0
[15] = glycylglycine buffer, pH 4, pH 4.0, 18 hours at room temperature, Table 2, read-out: Solubility pH 4.0
[16] = glycylglycine buffer, pH 4, pH 4.0, read-out: Solubility pH 4.0
[17] = glycylglycine buffer, pH 5, pH 5.0, read-out: Solubility pH 5.0

Row | EC50 [1] [nM] | EC50 [2] [nM] | ThT pH 4.0 lag time ([3]; Table 8) [h] | ThT pH 4.0 lag time ([3]; Table 9) [h] | ThT pH 4.0 lag time ([3]; ThT fibrillation assay) [h] | ThT pH 4.0 lag time (h) ([3]; ThT fibrillation assay) | solubility at 18 h [4, 5] [µM] | solubility at 18 h [4, 6] [µM] | solubility at 18 h [4, 7] [µM] | solubility at 18 h [4, 8] [µM] | solubility at 18 h [4, 9] [µM] | solubility at 18 h [4, 10] [µM] | solubility at 18 h [4, 11] [µM] | solubility at 18 h [4, 12] [µM] | solubility at 18 h [4, 13] [µM] | solubility at 18 h [4, 14] [µM] | solubility at 18 h [4, 15] [µM] | solubility at 18 h [4, 16] [µM] | solubility at 18 h [4, 17] [µM] | solubility at 18 h ([4]; pH 8.0, read-out: Solubility pH 8.0) [µM] | Structure (SMILES)
1 | 0.09 | 0.076 | >45 | >45 | >45 | >45 | > 200 | > 200 | > 200 | > 200 | > 200 | > 200 | > 200 | > 200 | 188 (≈ 808 µg/mL) | > 200 | > 200 | > 200 | 186 (≈ 800 µg/mL) | – | CC[C@H](C)[C@H](NC(=O)[C@@H]1CCCN1C(=O)CNC(=O)[C@H](Cc1ccccc1)NC(=O)[C@H](CO)NC(=O)[C@H](CO)NC(=O)[C@H](CO)NC(=O)[C@H](CO)NC(=O)[C@H](CCCNC(=N)N)NC(=O)[C@@H](NC(=O)[C@H](CC(C)C)NC(=O)[C@H](Cc1ccccc1)NC(=O)[C@H](CCC(=O)O)NC(=O)[C@H](C)NC(=O)[C@H](CC(C)C)NC(=O)[C@H](CCCNC(=N)N)NC(=O)[C@H](CCC(N)=O)NC(=O)[C@@H](NC(=O)[C@H](C)NC(=O)[C@@H]1CSSC[C@H](NC(=O)[C@H](CCCCN)NC(=O)CC[C@H](NC(=O)CCCCCCCCCCCCCCCCCCC(=O)O)C(=O)O)C(=O)N[C@@H](CC(N)=O)C(=O)N[C@@H]([C@@H](C)O)C(=O)N[C@@H](C)C(=O)N[C@@H]([C@@H](C)O)C(=O)N1)[C@@H](C)O)C(C)C)C(=O)N[C@@H](CC(C)C)C(=O)N[C@@H](CO)C(=O)N[C@@H](CO)C(=O)N[C@H](C(=O)N[C@@H](CC(=O)O)C(=O)N[C@H](C(=O)NCC(=O)N[C@@H](CO)C(=O)N[C@@H](CC(=O)O)C(=O)N[C@H](C(=O)N1CCC[C@H]1C(N)=O)[C@@H](C)O)C(C)C)[C@@H](C)O [Example 170, N-alpha-[(S)-4-Carboxy-4-(19-carboxynonadecanoylamino)butyryl]-[Glu14,Arg18,Ser21,Ser22,Ser28,Ser29,Asp31,Asp35,Pro37]-pramlintide] ({C20 diacid-γGlu}-KCNTATCATQRLAEFLVRSSSSFGPILSSTDVGSDTP-NH2; disulfide 2-7 (inferred))
2 | 0.921 | 0.349 | – | – | – | 1.7 | 1 (≈ 4.4 µg/mL) | 1 (≈ 4.4 µg/mL) | – | – | – | 1 (≈ 4.4 µg/mL) | – | 1 (≈ 4.4 µg/mL) | – | > 200 | > 200 | > 200 | > 200 | 1 (≈ 4.4 µg/mL) | CC[C@H](C)[C@H](NC(=O)[C@@H]1CCCN1C(=O)CNC(=O)[C@H](Cc1ccccc1)NC(=O)[C@H](CC(N)=O)NC(=O)[C@H](CO)NC(=O)[C@H](CO)NC(=O)[C@H](CO)NC(=O)[C@H](Cc1c[nH]cn1)NC(=O)[C@@H](NC(=O)[C@H](CC(C)C)NC(=O)[C@H](Cc1ccccc1)NC(=O)[C@H](CCC(=O)O)NC(=O)[C@H](C)NC(=O)[C@H](CC(C)C)NC(=O)[C@H](CCCNC(=N)N)NC(=O)[C@H](CCC(N)=O)NC(=O)[C@@H](NC(=O)[C@H](C)NC(=O)[C@@H]1CSSC[C@H](NC(=O)[C@H](Cc2c[nH]cn2)NC(=O)CC[C@H](NC(=O)CCCCCCCCCCCCCCCCCCC(=O)O)C(=O)O)C(=O)N[C@@H](CC(N)=O)C(=O)N[C@@H]([C@@H](C)O)C(=O)N[C@@H](C)C(=O)N[C@@H]([C@@H](C)O)C(=O)N1)[C@@H](C)O)C(C)C)C(=O)N[C@@H](CC(C)C)C(=O)N[C@@H](CO)C(=O)N[C@@H](CO)C(=O)N[C@H](C(=O)N[C@@H](CC(N)=O)C(=O)N[C@H](C(=O)NCC(=O)N[C@@H](CO)C(=O)N[C@@H](Cc1c[nH]cn1)C(=O)N[C@H](C(=O)N[C@@H](Cc1ccc(O)cc1)C(N)=O)[C@@H](C)O)C(C)C)[C@@H](C)O [Example 110, N-alpha-[(S)-4-Carboxy-4-(19-carboxynonadecanoylamino)butyryl]-[His1,Glu14,Ser21,Ser28,Ser29,His35]-pramlintide] ({C20 diacid-γGlu}-HCNTATCATQRLAEFLVHSSSNFGPILSSTNVGSHTY-NH2; disulfide 2-7 (inferred))
3 | 0.0555 | 0.0315 | >45 | >45 | >45 | >45 | > 200 | > 200 | > 200 | > 200 | > 200 | > 200 | > 200 | > 200 | > 200 | > 200 | > 200 | > 200 | > 200 | – | CC[C@H](C)[C@H](NC(=O)[C@@H]1CCCN1C(=O)CNC(=O)[C@H](Cc1ccccc1)NC(=O)[C@H](CC(N)=O)NC(=O)[C@H](CCC(N)=O)NC(=O)[C@H](CO)NC(=O)[C@H](CO)NC(=O)[C@H](Cc1c[nH]cn1)NC(=O)[C@H](Cc1c[nH]cn1)NC(=O)[C@H](CC(C)C)NC(=O)[C@H](Cc1ccccc1)NC(=O)[C@H](CCC(=O)O)NC(=O)[C@H](C)NC(=O)[C@H](CC(C)C)NC(=O)[C@H](CCCNC(=N)N)NC(=O)[C@H](CCC(N)=O)NC(=O)[C@@H](NC(=O)[C@H](C)NC(=O)[C@@H]1CSSC[C@H](NC(=O)[C@H](CCCCN)NC(=O)CC[C@H](NC(=O)CCCCCCCCCCCCCCCCCCC(=O)O)C(=O)O)C(=O)N[C@@H](CC(N)=O)C(=O)N[C@@H]([C@@H](C)O)C(=O)N[C@@H](C)C(=O)N[C@@H]([C@@H](C)O)C(=O)N1)[C@@H](C)O)C(=O)N[C@@H](CC(C)C)C(=O)N1CCC[C@H]1C(=O)N1CCC[C@H]1C(=O)N[C@H](C(=O)N[C@@H](CC(N)=O)C(=O)N[C@H](C(=O)NCC(=O)N[C@@H](CO)C(=O)N[C@@H](CC(N)=O)C(=O)N[C@H](C(=O)N1CCC[C@H]1C(N)=O)[C@@H](C)O)C(C)C)[C@@H](C)O [Example 130, N-alpha-[(S)-4-Carboxy-4-(19-carboxynonadecanoylamino)butyryl]-[Glu14,His17,Gln21,Pro37]-pramlintide] ({C20 diacid-γGlu}-KCNTATCATQRLAEFLHHSSQNFGPILPPTNVGSNTP-NH2; disulfide 2-7 (inferred))
4 | 0.0935 | 0.43 | – | – | >45 | >45 | > 200 | 170 (≈ 788 µg/mL) | – | – | – | 17 (≈ 78.8 µg/mL) | – | 6 (≈ 27.8 µg/mL) | 7 (≈ 32.4 µg/mL) | > 200 | > 200 | > 200 | > 200 | – | CC[C@H](C)[C@H](NC(=O)[C@@H]1CCCN1C(=O)CNC(=O)[C@H](Cc1ccccc1)NC(=O)[C@H](CC(N)=O)NC(=O)[C@H](CC(N)=O)NC(=O)[C@H](CO)NC(=O)[C@H](CO)NC(=O)[C@H](Cc1c[nH]cn1)NC(=O)[C@H](CCCNC(=N)N)NC(=O)[C@H](CC(C)C)NC(=O)[C@H](Cc1ccccc1)NC(=O)[C@H](CCC(=O)O)NC(=O)[C@H](C)NC(=O)[C@H](CC(C)C)NC(=O)[C@H](CCCNC(=N)N)NC(=O)[C@H](CCC(N)=O)NC(=O)[C@@H](NC(=O)[C@H](C)NC(=O)[C@@H]1CSSC[C@H](NC(=O)[C@H](CCCCN)NC(=O)[C@H](Cc2c[nH]cn2)NC(=O)CC[C@H](NC(=O)CCCCCCCCCCCCCCCCCCC(=O)O)C(=O)O)C(=O)N[C@@H](CC(N)=O)C(=O)N[C@@H]([C@@H](C)O)C(=O)N[C@@H](C)C(=O)N[C@@H]([C@@H](C)O)C(=O)N1)[C@@H](C)O)C(=O)N[C@@H](CC(C)C)C(=O)N1CCC[C@H]1C(=O)N1CCC[C@H]1C(=O)N[C@H](C(=O)N[C@@H](CC(N)=O)C(=O)N[C@H](C(=O)NCC(=O)N[C@@H](CO)C(=O)N[C@@H](Cc1c[nH]cn1)C(=O)N[C@H](C(=O)N[C@@H](Cc1ccc(O)cc1)C(N)=O)[C@@H](C)O)C(C)C)[C@@H](C)O [Example 68, N-alpha-[(S)-4-Carboxy-4-(19-carboxynonadecanoylamino)butyryl]-His-[Glu14,Arg17,His35]-pramlintide] ({C20 diacid-γGlu}-HKCNTATCATQRLAEFLRHSSNNFGPILPPTNVGSHTY-NH2; disulfide 3-8 (inferred); C-terminus assumed)
